# Results from article PMC3656124, “DNA Topoisomerase II Is Involved in Regulation of Cyst Wall Protein Genes and Differentiation in Giardia lamblia” (PLoS Neglected Tropical Diseases, 2013).
# Molecular target: T1, Topo II (Giardia duodenalis, UniProt E2RU90)
# T1 construct: gene GL50803_0016975
# T1 sequence (E2RU90 1-1491): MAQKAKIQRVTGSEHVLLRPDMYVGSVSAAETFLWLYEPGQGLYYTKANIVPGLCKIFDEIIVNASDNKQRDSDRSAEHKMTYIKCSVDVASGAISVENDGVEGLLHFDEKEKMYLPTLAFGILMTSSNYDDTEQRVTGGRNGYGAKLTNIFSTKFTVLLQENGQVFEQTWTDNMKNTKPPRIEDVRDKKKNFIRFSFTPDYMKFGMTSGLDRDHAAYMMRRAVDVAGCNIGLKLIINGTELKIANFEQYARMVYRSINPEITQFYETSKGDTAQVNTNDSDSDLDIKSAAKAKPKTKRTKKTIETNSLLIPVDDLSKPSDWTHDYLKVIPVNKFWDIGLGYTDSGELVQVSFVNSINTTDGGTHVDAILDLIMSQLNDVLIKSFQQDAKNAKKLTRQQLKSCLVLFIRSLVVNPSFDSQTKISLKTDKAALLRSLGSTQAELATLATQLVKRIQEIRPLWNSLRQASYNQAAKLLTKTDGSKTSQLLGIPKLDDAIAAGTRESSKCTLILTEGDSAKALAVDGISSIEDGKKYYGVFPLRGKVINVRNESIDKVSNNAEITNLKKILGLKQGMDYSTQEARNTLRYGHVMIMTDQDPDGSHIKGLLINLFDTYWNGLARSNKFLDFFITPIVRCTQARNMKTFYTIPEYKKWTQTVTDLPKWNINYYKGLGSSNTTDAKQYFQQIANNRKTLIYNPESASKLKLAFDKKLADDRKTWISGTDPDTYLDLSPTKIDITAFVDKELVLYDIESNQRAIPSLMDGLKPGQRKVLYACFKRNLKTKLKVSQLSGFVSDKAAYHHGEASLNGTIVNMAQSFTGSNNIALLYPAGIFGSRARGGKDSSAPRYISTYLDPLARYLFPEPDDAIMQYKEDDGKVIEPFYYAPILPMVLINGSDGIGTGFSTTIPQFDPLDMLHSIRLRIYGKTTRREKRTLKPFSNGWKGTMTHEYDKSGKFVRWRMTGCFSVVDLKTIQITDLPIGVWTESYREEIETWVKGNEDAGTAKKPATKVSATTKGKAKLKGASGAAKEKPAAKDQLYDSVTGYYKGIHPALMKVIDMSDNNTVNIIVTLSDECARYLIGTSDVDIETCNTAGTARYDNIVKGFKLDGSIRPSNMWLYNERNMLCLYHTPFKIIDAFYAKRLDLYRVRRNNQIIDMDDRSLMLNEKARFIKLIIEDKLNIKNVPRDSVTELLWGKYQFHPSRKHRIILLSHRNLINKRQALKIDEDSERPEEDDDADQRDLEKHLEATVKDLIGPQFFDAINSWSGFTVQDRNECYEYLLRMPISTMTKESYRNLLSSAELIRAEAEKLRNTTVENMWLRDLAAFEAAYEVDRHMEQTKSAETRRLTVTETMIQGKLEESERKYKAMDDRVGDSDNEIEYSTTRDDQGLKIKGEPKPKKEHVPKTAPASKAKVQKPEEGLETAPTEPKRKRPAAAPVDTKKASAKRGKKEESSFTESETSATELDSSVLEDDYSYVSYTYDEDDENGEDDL
# Test: pUC119 plasmid DNA cleavage assay, agarose gel
# Assay type: biochemical
# Settings: 12 mM etoposide in Me2SO (Me2SO alone also raised cleavage); 5 mM Mg2+, pH 7.5, 37 °C; traps cleavage complex
structure (smiles),measurement,value
COc1cc([C@@H]2c3cc4c(cc3[C@@H](O[C@@H]3O[C@@H]5CO[C@@H](C)O[C@H]5[C@H](O)[C@H]3O)[C@H]3COC(=O)[C@H]23)OCO4)cc(OC)c1O [etoposide],increase of DNA cleavage activity,addition of etoposide slightly increased DNA cleavage activity of Topo II
